According to patent publication US11352350B2, “IRAK degraders and uses thereof” (Kymera Therapeutics, Inc., priority 2018, dated 2022):
Like-named read-outs stand apart in the source and are kept apart here.

Legend:
[1] = biological target: IRAK4 (Homo sapiens (Human), UniProt Q9NWZ3); assay: IRAK4 MSD degradation in OCI-LY10; format: cell-based
Method: Degradation of IRAK4 in OCI-LY10 was quantitatively measured using Meso Scale Discovery technology. […] Compounds were then added to the assay plates with a final top concentration of 1 to 10 μM in a 1:3 dilution series with total of 8 doses. The assay plates were then incubated for 4 to 24 hours at 37° C. under 5% CO2. […] To prepare MSD assay plates (Meso Scale Discovery Catalog number L15XA-3), the plates were coated with […] capture antibody (mouse Anti-IRAK4 antibody [2H9], ab119942) in PBS, at 40 μL/well. […] Cell lysates were then added to MSD assay plates and the plates were incubated at room temperature for 1 hour. The plates were then washed 3 times with 150 μL/well TBST buffer and 25 μL/well primary detection antibody (rabbit Anti-IRAK4 antibody [Y279], from Abcam. Catalog number ab32511, […]). The assay plates were then incubated at room temperature for 1 hour, washed 3 times with 150 μL/well TBST buffer and 25 µL/well secondary detection antibody, SULFO-TAG anti-rabbit antibody were added (anti rabbit antibody from Meso Scale Discovery, Catalog number R32AB-1, 1 μg/mL). The assay plates were then incubated at room temperature for 1 hour, washed 3 times with 150 μL/well TB ST buffer, and 150 μL/well MSD reading buffer (Meso Scale Discovery catalog number R92TC-2) was added. The plates were then analyzed by a MSD reader (Meso Scale Discovery, Model Quick Plex SQ 120). The data was then analyzed by software Prism 7.0 from GraphPad and the dose-depended IRAK4 degradation were fit using a three-parameter logistic equation to calculate DC50.

[2] = system: OCI-LY10; assay: CTG Cell Viability Assay - OCI-LY10; format: cell-based, human; settings: OCI-LY10, 4 days, read-out: CTG Cell Viability Assay - OCI-LY10: Average external-IC50
Method: Compound-mediated viability effect on OCI-LY10 or TMD8 was quantitatively determined using the CellTiter-Glo® Luminescent Cell Viability Assay kit from Promega (Catalog number G7570) following manufacturer's recommended procedures. […] Compounds were then added to the assay plate with final top concentration of 10 μM and 1:3 dilution series with total of 9 doses. The final DMSO concentration was normalized to 0.2%. The assay plates were incubated at 37° C. for 4 days under 5% CO2. Then the assay plate was equilibrated at room temperature for 10 minutes. […] The data was then analyzed by software Prism 7.0 from GraphPad and the dose response curves were fit using a three-parameter logistic equation to calculate IC50.

[3] = OCI-LY10, 4 hrs, MSD, read-out: IRAK4 MSD degradation in OCI-LY10 at 4 hrs: Average external-Abs DC50
[4] = OCI-LY10, 24 hrs, MSD, read-out: IRAK4 MSD degradation in OCI-LY10 at 24 hrs: Average external-Abs DC50
[5] = OCI-LY10, 4 hrs, read-out: IRAK4 MSD degradation in OCI-LY10 at 4 hrs: DC50
[6] = OCI-LY10, 24 hrs, read-out: IRAK4 MSD degradation in OCI-LY10 at 24 hrs: DC50

IRAK4, sequence (Q9NWZ3 whole entry): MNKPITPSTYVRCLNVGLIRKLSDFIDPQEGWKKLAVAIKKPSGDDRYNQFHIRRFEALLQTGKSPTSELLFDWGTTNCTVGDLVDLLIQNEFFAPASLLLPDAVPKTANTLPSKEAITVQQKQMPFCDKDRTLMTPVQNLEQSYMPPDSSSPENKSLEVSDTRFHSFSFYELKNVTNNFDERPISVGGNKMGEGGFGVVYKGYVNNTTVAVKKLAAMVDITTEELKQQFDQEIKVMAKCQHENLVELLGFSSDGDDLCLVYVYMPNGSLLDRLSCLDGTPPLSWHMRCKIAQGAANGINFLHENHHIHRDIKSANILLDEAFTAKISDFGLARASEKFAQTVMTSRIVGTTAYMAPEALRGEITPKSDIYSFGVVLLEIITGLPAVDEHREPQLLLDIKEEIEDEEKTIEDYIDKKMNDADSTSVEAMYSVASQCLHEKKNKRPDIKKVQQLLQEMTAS

| SMILES | DC50 [1, 3] [nM] | DC50 [1, 4] [nM] | IC50 ([2]; Homo sapiens, OCI-Ly10, 96 h) [nM] | IC50 [2] [nM] | DC50 [1, 5] [nM] | DC50 [1, 6] [nM] |
| --- | --- | --- | --- | --- | --- | --- |
| CN(CCCOCCCN)C[C@H]1CC[C@H](n2cc(NC(=O)c3cnn4ccc(N5CCOCC5)nc34)c(C(F)F)n2)CC1 [I-315, N-[1-[4-[[3-(3-aminopropoxy)propyl-methyl-amino]methyl]cyclohexyl]-3-(difluoromethyl)pyrazol-4-yl]-5-morpholino-pyrazolo[1,5-a] pyrimidine-3-carboxamide] | > 1000 | > 1000 | > 1000 |  |  |  |
| CN[C@@H](C)C(=O)N[C@H](C(=O)N1Cc2cc(OCCOCCOCCNC[C@H]3CC[C@H](n4cc(NC(=O)c5coc(-c6ccnc(NCC7CC7)c6)n5)c(C(F)F)n4)CC3)ccc2C[C@H]1C(=O)N[C@@H]1CCCc2ccccc21)C(C)(C)C [I-161] | > 1000 | > 1000 | > 1000 |  |  |  |
| Cc1c[nH]c2ncnc(N[C@H]3CC[C@H](N4CCN(C(=O)CCOCCCc5ccc6c(c5)n(C)c(=O)n6C5CCC(=O)NC5=O)CC4)CC3)c12 (some centres unmarked) [I-24] | > 1000 | > 1000 | > 1000 |  |  |  |
| CN(C[C@H]1CC[C@H](n2cc(NC(=O)c3coc(-c4ccnc(NCC5CC5)c4)n3)c(C(F)F)n2)CC1)C1CCN(Cc2ccnc3c2c2ccccc2n3C2CCC(=O)NC2=O)CC1 (some centres unmarked) [I-241] | 10 to 100 |  | 500 to 1000 |  |  |  |
| CN(CCCN(C)C[C@H]1CC[C@H](n2cc(NC(=O)c3coc(-c4ccnc(NCC5CC5)c4)n3)c(C(F)F)n2)CC1)Cc1cccc2c1n(C)c(=O)n2C1CCC(=O)NC1=O (some centres unmarked) [I-242] | < 10 |  | 500 to 1000 |  |  |  |
| CN(CCc1ccc(CNc2cccc3c2C(=O)N(C2CCC(=O)NC2=O)C3=O)cc1)C[C@H]1CC[C@H](n2cc(NC(=O)c3cnn4ccc(N5C[C@H]6C[C@@H]5CO6)nc34)c(C(F)F)n2)CC1 (some centres unmarked) [I-359] | > 1000 | > 1000 | < 50 |  |  |  |
| Cn1c(=O)n(C2CCC(=O)NC2=O)c2cccc(CCCOCC3CCN(C[C@H]4CC[C@H](n5cc(NC(=O)c6cnn7ccc(N8CCOCC8)nc67)c(C(F)F)n5)CC4)CC3)c21 (some centres unmarked) [I-198] | < 10 |  | > 1000 |  |  |  |
| CN1C(=O)C(C2CCC(=O)NC2=O)c2cccc(CCCOC3CCN(C[C@H]4CC[C@H](n5cc(NC(=O)c6cnn7ccc(N8CC[C@H](O)C8)nc67)c(C(F)F)n5)CC4)CC3)c21 (some centres unmarked) [I-282] | < 10 |  | > 1000 |  |  |  |
| O=C1CCC(n2c(=O)oc3cc(CCCOC4CCN(C[C@H]5CC[C@H](n6cc(NC(=O)c7cnn8ccc(N9CCNCC9)nc78)c(C(F)F)n6)CC5)CC4)ccc32)C(=O)N1 (some centres unmarked) [I-166] | 10 to 100 |  | > 1000 |  |  |  |
| Cn1c(=O)n(C2CCC(=O)NC2=O)c2cccc(CCCOC3CCN(C[C@H]4CC[C@H](n5cc(NC(=O)c6cnn7ccc(NCC8CC8)nc67)c(C(C)(C)O)n5)CC4)CC3)c21 (some centres unmarked) [I-267] | 100 to 1000 |  |  | > 1000 |  |  |
| C[C@H]1CN(c2ccn3ncc(C(=O)Nc4cn([C@H]5CC[C@H](CN6CCC(OCCCc7cccc8c7n(C)c(=O)n8C7CCC(=O)NC7=O)CC6)CC5)nc4C(F)F)c3n2)C[C@H](C)O1 (some centres unmarked) [I-285] | 10 to 100 |  | > 1000 |  |  |  |
| CC[C@@H]1[C@H](F)C(=O)N[C@@H]1COc1ncc(C#CC2CCN(CCCOCCCc3cccc4c3n(C)c(=O)n4C3CCC(=O)NC3=O)CC2)c2cc(C(N)=O)c(OC)cc12 (some centres unmarked) [I-204] | 100 to 1000 | 10 to 100 | > 1000 |  |  |  |
| O=C1CCC(N2C(=O)c3cccc(NCCCOCCCN4CCC(n5cc(NC(=O)c6cnn7ccc(N8CCOCC8)nc67)c(C(F)F)n5)CC4)c3C2=O)C(=O)N1 (centres unmarked) [I-226] | 100 to 1000 | 10 to 100 | < 50 |  |  |  |
| O=C1CCC(N2C(=O)c3cccc(NCCCOCCCOCCCN4CCC(n5cc(NC(=O)c6cnn7ccc(N8C[C@H]9C[C@@H]8CO9)nc67)c(C(F)F)n5)CC4)c3C2=O)C(=O)N1 (some centres unmarked) [I-321] | 100 to 1000 |  |  | > 1000 |  |  |
| N#CCc1ccc2c(N[C@H]3CC[C@H](N4CCN(C(=O)COCCOCCOCCOCCNc5cccc6c5C(=O)N(C5CCC(=O)NC5=O)C6=O)CC4)CC3)ncnc2c1 (some centres unmarked) [I-52] | > 1000 |  | 100 to 500 |  |  |  |
| O=C1CCC(N2C(=O)c3cccc(NCCCOCCCN4CCN(c5ncc(-n6cc(NC(=O)c7cnn8ccc(N9CCOCC9)nc78)c(C(F)F)n6)cn5)CC4)c3C2=O)C(=O)N1 (centres unmarked) [I-456] |  |  | < 50 |  | 100 to 1000 | 100 to 1000 |
| Cn1c(=O)n(C2CCC(=O)NC2=O)c2cccc(CCCOC3CCN(C[C@H]4CC[C@H](n5cc(NC(=O)c6cnn7ccc(N[C@@H]8CCCC[C@@H]8O)nc67)c(C(F)(F)F)n5)CC4)CC3)c21 (some centres unmarked) [I-153] | 10 to 100 |  | > 1000 |  |  |  |
| Cc1c[nH]c2ncnc(N[C@H]3CC[C@H](N4CCN(C(=O)COCCOCCOCCOCCCc5ccc6c(c5)n(C)c(=O)n6C5CCC(=O)NC5=O)CC4)CC3)c12 (some centres unmarked) [I-26] | > 1000 | > 1000 | > 1000 |  |  |  |
| Cn1c(=O)n(C2CCC(=O)NC2=O)c2cccc(CCCOC3CCN([C@H]4CC[C@@H](Nc5ncnc6ccc(C#N)cc56)CC4)CC3)c21 (some centres unmarked) [I-305, 4-[[4-[4-[3-[1-(2,6-dioxo-3-piperidyl)-3-methyl-2-oxo-benzimidazol-4-yl]propoxy]-1-piperidyl]cyclohexyl]amino]quinazoline-6-carbonitrile] | > 1000 | > 1000 | > 1000 |  |  |  |
| CN(C[C@H]1CC[C@H](n2cc(NC(=O)c3cnn4ccc(N5C[C@H]6C[C@@H]5CO6)nc34)c(C(F)F)n2)CC1)[C@H]1CC[C@H](Nc2cccc3c2C(=O)N(C2CCC(=O)NC2=O)C3=O)CC1 (some centres unmarked) [I-463] |  |  | 100 to 500 |  | 10 to 100 | < 10 |
| Cn1c(=O)n(C2CCC(=O)NC2=O)c2ccc(CN3CCC(CCCN4CCC(n5cc(NC(=O)c6coc(-c7ccnc(NCC8CC8)c7)n6)c(C(F)F)n5)CC4)CC3)cc21 (centres unmarked) [I-254] | 10 to 100 |  | 100 to 500 |  |  |  |
| CN(CCCOC1CCN(C[C@H]2CC[C@H](n3cc(NC(=O)c4cnn5ccc(N6CCOCC6)nc45)c(C(F)F)n3)CC2)CC1)c1cccc2c1C(=O)N(C1CCC(=O)NC1=O)C2=O (some centres unmarked) [I-212] | 10 to 100 |  | > 1000 |  |  |  |
| Cn1c(=O)n(C2CCC(=O)NC2=O)c2cccc(-c3cccc(CCCOCc4ccc(-n5cc(NC(=O)c6cnn7ccc(N8CCOCC8)nc67)c(C(F)F)n5)cc4)c3)c21 (centres unmarked) [I-409] | > 1000 |  | > 1000 |  |  |  |
| Cn1c(=O)n(C2CCC(=O)NC2=O)c2cccc(CCCOC3CCN(C[C@H]4CC[C@H](n5cc(NC(=O)c6cnn7ccc(N[C@@H]8CCCC(F)(F)[C@@H]8N)nc67)c(C(F)F)n5)CC4)CC3)c21 (some centres unmarked) [I-300] | 100 to 1000 |  | 500 to 1000 |  |  |  |
| O=C1CCC(n2c3ccccc3c3c(CCCOC4CCN(C[C@H]5CC[C@H](n6cc(NC(=O)c7cnn8ccc(N9CCOCC9)nc78)c(C(F)F)n6)CC5)CC4)ccnc32)C(=O)N1 (some centres unmarked) [I-192] | 10 to 100 |  | > 1000 |  |  |  |
| Cn1c(=O)n(C2CCC(=O)NC2=O)c2cccc(CCCOCC3CCN(C[C@H]4CC[C@H](n5cc(NC(=O)c6cnn7ccc(N8CCNCC8)nc67)c(C(F)F)n5)CC4)CC3)c21 (some centres unmarked) [I-164] | < 10 |  | > 1000 |  |  |  |
| Cn1c(=O)n(C2CCC(=O)NC2=O)c2ccc(CCCOCCOCCOCCOCC(=O)N3CCN([C@H]4CC[C@H](Nc5ncnn6ccc(C7CCOCC7)c56)CC4)CC3)cc21 (some centres unmarked) [I-20] | > 1000 | > 1000 | > 1000 |  |  |  |
